By EC50 is commonly meant the concentration needed to bring the measured effect to its halfway point.

Read-outs that look alike come from different tables or passages of the source.

For the assay, the target named is T1, F508delCFTR (Homo sapiens, UniProt P13569, DEL508-508).
T1 construct: expressed in transfected cells; host or cells: CFBE41o- human lung-derived epithelial cells (CFBE4lo-F508delCFTR-HRP), doxycycline-inducible
Put plainly: Cell Surface Expression-Horse Radish Peroxidase (CSE-HRP) Assay.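 As to Maximum % activity (with co-corrector): co-corrector and positive control are both the same reference corrector at 2 µM.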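 As to Maximum % activity (without co-corrector): percent of the 2 µM on-plate positive control corrector response above DMSO.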 In kind it is cell-based. Conditions: for Emax / Maximum % activity (with co-corrector): maximum at any tested concentration, normalized to on-plate positive control; for Emax: read-out: Maximum % activity (without co-corrector).

The mark [1] stands for this setting: test compound without co-corrector.
Where [2] appears, read: test compound without co-corrector, read-out: EC50 (without co-corrector).
Setting [3] is: with co-corrector (2 μM of 3-[(2R,4R)-4-({[1-(2,2-difluoro-1,3-benzodioxol-5-yl)cyclopropyl]carbonyl}amino)-7-methoxy-3,4-dihydro-2H-chromen-2-yl]benzoic acid).
[4] abbreviates: with co-corrector (2 μM of 3-[(2R,4R)-4-({[1-(2,2-difluoro-1,3-benzodioxol-5-yl)cyclopropyl]carbonyl}amino)-7-methoxy-3,4-dihydro-2H-chromen-2-yl]benzoic acid), read-out: EC50 (with co-corrector).

T1 sequence (P13569 with tags, fused parts or gaps DEL508-508): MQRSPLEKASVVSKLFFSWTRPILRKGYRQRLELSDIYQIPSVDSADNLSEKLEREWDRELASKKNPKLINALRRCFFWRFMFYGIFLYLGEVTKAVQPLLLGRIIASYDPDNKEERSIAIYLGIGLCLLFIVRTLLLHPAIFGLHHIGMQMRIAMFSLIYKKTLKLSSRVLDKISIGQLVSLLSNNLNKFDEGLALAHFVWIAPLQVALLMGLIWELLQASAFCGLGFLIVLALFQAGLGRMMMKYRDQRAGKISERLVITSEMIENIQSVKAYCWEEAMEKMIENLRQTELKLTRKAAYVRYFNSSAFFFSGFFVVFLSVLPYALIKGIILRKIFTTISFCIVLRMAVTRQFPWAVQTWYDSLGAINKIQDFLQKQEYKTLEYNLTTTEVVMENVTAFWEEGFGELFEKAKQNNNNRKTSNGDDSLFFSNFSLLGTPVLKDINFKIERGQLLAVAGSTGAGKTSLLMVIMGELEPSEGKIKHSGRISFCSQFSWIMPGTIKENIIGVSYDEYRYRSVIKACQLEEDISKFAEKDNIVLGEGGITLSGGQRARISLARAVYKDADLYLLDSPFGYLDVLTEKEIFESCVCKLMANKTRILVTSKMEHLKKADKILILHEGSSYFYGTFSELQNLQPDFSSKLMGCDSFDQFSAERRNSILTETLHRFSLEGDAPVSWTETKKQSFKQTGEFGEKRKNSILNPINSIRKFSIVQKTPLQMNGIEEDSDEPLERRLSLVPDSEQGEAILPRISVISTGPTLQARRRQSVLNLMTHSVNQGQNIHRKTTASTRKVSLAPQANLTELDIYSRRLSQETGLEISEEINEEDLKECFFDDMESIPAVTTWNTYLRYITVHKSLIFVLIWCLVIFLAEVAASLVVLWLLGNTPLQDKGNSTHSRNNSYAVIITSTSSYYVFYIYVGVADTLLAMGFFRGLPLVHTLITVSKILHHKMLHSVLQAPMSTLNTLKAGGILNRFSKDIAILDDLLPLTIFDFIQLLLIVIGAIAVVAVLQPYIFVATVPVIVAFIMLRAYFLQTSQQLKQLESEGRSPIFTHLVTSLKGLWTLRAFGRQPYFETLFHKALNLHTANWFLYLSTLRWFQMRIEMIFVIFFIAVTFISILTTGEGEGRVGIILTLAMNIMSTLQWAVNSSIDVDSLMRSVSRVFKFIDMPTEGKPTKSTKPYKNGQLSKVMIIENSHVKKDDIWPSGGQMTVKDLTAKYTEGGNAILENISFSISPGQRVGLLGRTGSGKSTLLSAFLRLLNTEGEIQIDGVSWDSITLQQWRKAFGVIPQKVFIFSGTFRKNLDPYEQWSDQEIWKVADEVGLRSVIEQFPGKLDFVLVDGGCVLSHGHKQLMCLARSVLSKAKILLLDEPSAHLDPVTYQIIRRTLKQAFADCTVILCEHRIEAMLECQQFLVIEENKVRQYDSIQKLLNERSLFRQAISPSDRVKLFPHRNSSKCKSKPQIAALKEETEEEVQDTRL

In the case of `COc1nc(C(C)(C)C)ccc1CN[C@H]1[C@H](C(C)(C)C)[C@@H](C(=O)O)N(C(=O)[C@H](OC)c2ccccc2)[C@H]1c1ccccc1` [II-433], the Emax under setting [1] was 100 to 200%. Further, the half-maximal effective concentration (EC50) is below 1000 nM under setting [2] and below 1000 nM under setting [4]. In addition, the “Maximum % activity (with co-corrector)” value under setting [3] was “+++ (≥350)”.
Regarding `COc1ncc(C(F)(F)F)cc1CN[C@H]1[C@H](C(C)(C)C)[C@@H](C(=O)O)N(C(=O)C2CCC(C)(C)O2)[C@H]1c1ccccc1` (some centres unmarked) [II-434], under setting [1], the Emax was 100 to 200%. Further, the EC50 reads like this: under setting [2], 1000 to 10000 nM; under setting [4], 1000 to 10000 nM. Also, under setting [3], the “Maximum % activity (with co-corrector)” value is on record as “+++ (≥350)”.
With `COc1ncc(C(F)(F)F)cc1CN[C@H]1[C@H](C(C)(C)C)[C@@H](C(=O)O)N(C(=O)C2CCc3ccc(F)cc3O2)[C@H]1c1ccccc1` (some centres unmarked) [II-435], the Emax under setting [1] is below 100%. Also, the EC50 fell in the range of 1000 to 10000 nM under setting [2] and 1000 to 10000 nM under setting [4]. The “Maximum % activity (with co-corrector)” value under setting [3] is “++ (≥150 and <350)”.
As for `COc1ccc(C(F)(F)F)cc1CN[C@H]1[C@H](C(C)(C)OC)[C@@H](C(=O)O)N(C(=O)C2CCCCC2)[C@H]1c1cccnc1OC` [II-436], the Emax under setting [1] was in the range of 100 to 200%. For the same compound, the EC50 is, setting by setting: under setting [2], 1000 to 10000 nM; under setting [4], 1000 to 10000 nM. Besides, the “Maximum % activity (with co-corrector)” value under setting [3] was “+++ (≥350)”.
Regarding `COc1ccc(C(F)(F)F)cc1CN[C@H]1[C@H](C(C)(C)OC)[C@@H](C(=O)O)N(C(=O)C2CCCCC2)[C@H]1c1cccnc1N(C)C` [II-437], the Emax under setting [1] is above 200%. In addition, the EC50 is, setting by setting: under setting [2], 1000 to 10000 nM; under setting [4], 1000 to 10000 nM. In addition, the “Maximum % activity (with co-corrector)” value under setting [3] was “+++ (≥350)”.
Take `C/C=C/CC(C/C=C/C)C(=O)N1[C@H](C(=O)O)[C@@H](C(C)(C)C)[C@H](NCc2cc(C(C)(C)C)ccc2OC)[C@@H]1c1ccccc1` [II-439]: the Emax under setting [1] was above 200%. Further, the EC50 reads like this: under setting [2], 1000 to 10000 nM; under setting [4], below 1000 nM. The “Maximum % activity (with co-corrector)” value under setting [3] is “+++ (≥350)”.
In the case of `COc1ncc(C2(C)CC2)cc1CN[C@H]1[C@H](C(C)(C)C)[C@@H](C(=O)O)N(C(=O)C2CCCCC2)[C@H]1c1ccccc1` [II-440], the Emax under setting [1] lay in the range of 100 to 200%. Further, the EC50 reads like this: under setting [2], 1000 to 10000 nM; under setting [4], 1000 to 10000 nM. In addition, the “Maximum % activity (with co-corrector)” value under setting [3] is “+++ (≥350)”.
`COc1ccc([Si](C)(C)C)cc1CN[C@H]1[C@H](C(C)(C)C)[C@@H](C(=O)O)N(C(=O)[C@H]2CCCC(F)(F)C2)[C@H]1c1ccccc1` [II-441]: the half-maximal effective concentration (EC50) is below 1000 nM under setting [2] and below 1000 nM under setting [4].
Regarding `COc1ccc(C(C)(C)C)cc1CN[C@H]1[C@H](C(C)(C)C)[C@@H](C(=O)O)N(C(=O)C2CC23CCOCC3)[C@H]1c1ccccc1` (some centres unmarked) [II-442], the Emax under setting [1] is below 100%. Further, the EC50 under setting [2] fell in the range of 1000 to 10000 nM and the EC50 under setting [4] was 1000 to 10000 nM. For the same compound, the “Maximum % activity (with co-corrector)” value under setting [3] is recorded as “+++ (≥350)”.
For the compound `COc1ccc(C(C)(C)C)cc1CN[C@H]1[C@H](C(C)(C)C)[C@@H](C(=O)O)N(C(=O)C2CCO2)[C@H]1c1ccccc1` (some centres unmarked) [II-443], the Emax under setting [1] is above 200%. The EC50 runs as follows: under setting [2], 1000 to 10000 nM; under setting [4], 1000 to 10000 nM. In addition, the “Maximum % activity (with co-corrector)” value under setting [3] was “+++ (≥350)”.
As for `COc1ccc(C(C)(C)C)cc1CN[C@H]1[C@H](C(C)(C)C)[C@@H](C(=O)O)N(C(=O)c2cc(C)n(C)n2)[C@H]1c1ccccc1` [II-445], the Emax under setting [1] was in the range of 100 to 200%. In addition, the EC50 is, setting by setting: under setting [2], 1000 to 10000 nM; under setting [4], 1000 to 10000 nM. Moreover, the “Maximum % activity (with co-corrector)” value under setting [3] is “+++ (≥350)”.
Regarding `COc1ncc(C(F)(F)F)cc1CN[C@H]1[C@H](C(C)(C)C)[C@@H](C(=O)O)N(C(=O)C2Cc3cccc(C)c3O2)[C@H]1c1ccccc1` (some centres unmarked) [II-446], under setting [1], the Emax was below 100%. For the same compound, the half-maximal effective concentration (EC50) lay within 1000 to 10000 nM under setting [2] and 1000 to 10000 nM under setting [4]. Also, under setting [3], the “Maximum % activity (with co-corrector)” value is “++ (≥150 and <350)”.
Take `COc1ccc(-c2ccccc2)cc1CN[C@H]1[C@H](C(C)(C)C)[C@@H](C(=O)O)N(C(=O)[C@H]2CCCCO2)[C@H]1c1cccnc1N(C)C` [II-447]: the Emax under setting [1] was 100 to 200%. The EC50 is, setting by setting: under setting [2], 1000 to 10000 nM; under setting [4], 1000 to 10000 nM. For the same compound, under setting [3], the “Maximum % activity (with co-corrector)” value is “+++ (≥350)”.
As for `COc1ccc(-c2ccccc2)cc1CN[C@H]1[C@H](C(C)(C)C)[C@@H](C(=O)O)N(C(=O)[C@@H]2CCCCO2)[C@H]1c1cccnc1N(C)C` [II-450], under setting [1], the Emax is above 200%. Moreover, the EC50 is 1000 to 10000 nM under setting [2] and below 1000 nM under setting [4]. Moreover, the “Maximum % activity (with co-corrector)” value under setting [3] is given as “+++ (≥350)”.
The corresponding values for `COc1ccc(C(C)(C)C)cc1CN[C@H]1[C@H](C(C)(C)C)[C@@H](C(=O)O)N(C(=O)[C@H]2CCCCO2)[C@H]1c1ccccc1` [II-451] are above 200%, 1000 to 10000 nM, 1000 to 10000 nM and “+++ (≥350)”.
Turning to `COc1ccc(C(C)(C)C)cc1CN[C@H]1[C@H](C(C)(C)C)[C@@H](C(=O)O)N(C(=O)C(C)C2CCCCO2)[C@H]1c1ccccc1` (some centres unmarked) [II-457], the Emax under setting [1] is above 200%. In addition, the EC50 was in the range of 1000 to 10000 nM under setting [2] and 1000 to 10000 nM under setting [4]. For the same compound, under setting [3], the “Maximum % activity (with co-corrector)” value is “+++ (≥350)”.
As to `COc1ccc(C(C)(C)C)cc1CN[C@H]1[C@H](C(C)(C)C)[C@@H](C(=O)O)N(C(=O)[C@@H]2CCCCO2)[C@H]1c1ccccc1F` [II-460], the Emax under setting [1] was above 200%. Also, the EC50 was 1000 to 10000 nM under setting [2] and below 1000 nM under setting [4]. For the same compound, the “Maximum % activity (with co-corrector)” value under setting [3] is listed as “+++ (≥350)”.
On to `COc1ncc(C(F)(F)F)cc1N[C@H]1[C@H](C(C)(C)C)[C@@H](C(=O)O)N(C(=O)C2CCCCC2)[C@H]1c1cccnc1N(C)C` [II-461], for which the Emax under setting [1] is below 100%. For the same compound, the EC50 was 1000 to 10000 nM under setting [2] and 1000 to 10000 nM under setting [4]. For the same compound, the “Maximum % activity (with co-corrector)” value under setting [3] was “++ (≥150 and <350)”.
As to `COc1ccc(C2(C)CCC2)cc1CN[C@H]1[C@H](C(C)(C)C)[C@@H](C(=O)O)N(C(=O)C2CCCCC2)[C@H]1c1ccccc1` [II-462], the Emax under setting [1] is above 200%. Also, the EC50 under setting [2] is below 1000 nM and the EC50 under setting [4] is below 1000 nM. Moreover, under setting [3], the “Maximum % activity (with co-corrector)” value is “+++ (≥350)”.
As to `COc1ccc(C(C)(C)C)cc1CN[C@H]1[C@H](C(C)(C)C)[C@@H](C(=O)O)N(C(=O)C2CCC(O)(C(F)(F)F)CC2)[C@H]1c1cccnc1N(C)C` (some centres unmarked) [II-463], the Emax under setting [1] is 100 to 200%. Moreover, the EC50 under setting [2] lay in the range of 1000 to 10000 nM and the EC50 under setting [4] fell in the range of 1000 to 10000 nM. Besides, under setting [3], the “Maximum % activity (with co-corrector)” value is listed as “+++ (≥350)”.
For `COc1ccc(C(C)(C)C)cc1CN[C@H]1[C@H](C(C)(C)C)[C@@H](C(=O)O)N(C(=O)c2ccc(Oc3ccccc3)cc2)[C@H]1c1cccnc1N(C)C` [II-464], the Emax under setting [1] fell in the range of 100 to 200%. In addition, the EC50 under setting [2] was below 1000 nM and the EC50 under setting [4] was below 1000 nM. Further, the “Maximum % activity (with co-corrector)” value under setting [3] was “+++ (≥350)”.
On to `COc1ccc(C(C)(C)C)cc1CN[C@H]1[C@H](C(C)(C)C)[C@@H](C(=O)O)N(C(=O)c2ccc(OC3CCOCC3)cc2)[C@H]1c1cccnc1N(C)C` [II-465], for which the Emax under setting [1] was above 200%. Besides, the EC50 by setting is: under setting [2], 1000 to 10000 nM; under setting [4], below 1000 nM. Also, under setting [3], the “Maximum % activity (with co-corrector)” value is “+++ (≥350)”.

The values are drawn from patent US20180099931A1 (AbbVie S.à.r.l., priority 2016, published 2018).
